Assay results as given in the NIST ThermoML archive (doi:10.1016/j.fluid.2018.10.024).
± gives the expanded uncertainty stated by the source.

Tests used:
[1] = refractive index (Na D-line) (dimensionless); conditions: 101.33 kPa, Liquid, Standard Abbe refractometry
[2] = 101.33 kPa, Liquid; for viscosity: Capillary tube (Ostwald / Ubbelohde) method; for mass density: Vibrating tube method
[3] = xn = mol fraction of the nth substance listed; conditions: 101 kPa, Liquid, x1 = 1; for viscosity: Capillary tube (Ostwald / Ubbelohde) method; for mass density: Vibrating tube method
[4] = refractive index (Na D-line) (dimensionless); xn = mol fraction of the nth substance listed; conditions: 101 kPa, Liquid, Standard Abbe refractometry, x1 = 1

CC(C)=O [acetone]
Conditions | mass density, [2] [kg/m3] | refractive index, [1] | viscosity, [2] [mPa·s]
298.15 K | 784.41 ± 0.12 | 1.3558 ± 0.0006 | 0.3034 ± 0.0024
303.15 K | 778.66 ± 0.13 | 1.3534 ± 0.0006 | 0.2966 ± 0.0024
308.15 K | 773.08 ± 0.13 | 1.3509 ± 0.0006 | 0.2831 ± 0.0023
313.15 K | 766.95 ± 0.13 | 1.349 ± 0.0006 | 0.2689 ± 0.0023
318.15 K | 761.26 ± 0.13 | 1.3449 ± 0.0006 | 0.2511 ± 0.0022

CC(C)=O [acetone] + ClC(Cl)Cl
Conditions | mass density, [3] [kg/m3] | refractive index, [4] | viscosity, [3] [mPa·s]
298.15 K | 784.41 ± 0.12 | 1.3558 ± 0.0006 | 0.3034 ± 0.0024
303.15 K | 778.66 ± 0.12 | 1.3534 ± 0.0006 | 0.2966 ± 0.0024
308.15 K | 773.08 ± 0.13 | 1.3509 ± 0.0006 | 0.2831 ± 0.0024
313.15 K | 766.95 ± 0.13 | 1.349 ± 0.0006 | 0.2689 ± 0.0023
318.15 K | 761.26 ± 0.13 | 1.3449 ± 0.0006 | 0.2511 ± 0.0022

CO [methanol]
Conditions | mass density, [2] [kg/m3] | refractive index, [1] | viscosity, [2] [mPa·s]
298.15 K | 787.21 ± 0.12 | 1.3271 ± 0.0006 | 0.5467 ± 0.0037
303.15 K | 782.75 ± 0.12 | 1.3245 ± 0.0006 | 0.5058 ± 0.0035
308.15 K | 777.56 ± 0.12 | 1.323 ± 0.0006 | 0.4818 ± 0.0034
313.15 K | 772.97 ± 0.12 | 1.3208 ± 0.0006 | 0.4484 ± 0.0032
318.15 K | 768.03 ± 0.13 | 1.3184 ± 0.0006 | 0.4208 ± 0.0031

CO [methanol] + CC(C)=O
Conditions | mass density, [3] [kg/m3] | refractive index, [4] | viscosity, [3] [mPa·s]
298.15 K | 787.21 ± 0.12 | 1.3271 ± 0.0006 | 0.5467 ± 0.0037
303.15 K | 782.75 ± 0.12 | 1.3245 ± 0.0006 | 0.5058 ± 0.0035
308.15 K | 777.56 ± 0.12 | 1.323 ± 0.0006 | 0.4818 ± 0.0034
313.15 K | 772.97 ± 0.12 | 1.3208 ± 0.0006 | 0.4484 ± 0.0032
318.15 K | 768.03 ± 0.12 | 1.3184 ± 0.0006 | 0.4208 ± 0.0031

CO [methanol] + ClC(Cl)Cl
Conditions | mass density, [3] [kg/m3] | refractive index, [4] | viscosity, [3] [mPa·s]
298.15 K | 787.21 ± 0.12 | 1.3271 ± 0.0006 | 0.5467 ± 0.0037
303.15 K | 782.75 ± 0.12 | 1.3245 ± 0.0006 | 0.5058 ± 0.0035
308.15 K | 777.56 ± 0.12 | 1.323 ± 0.0006 | 0.4765 ± 0.0034
313.15 K | 772.97 ± 0.12 | 1.3208 ± 0.0006 | 0.4426 ± 0.0032
318.15 K | 768.03 ± 0.12 | 1.3184 ± 0.0006 | 0.4153 ± 0.003

ClC(Cl)Cl [trichloromethane]
Conditions | mass density, [2] [kg/m3] | refractive index, [1] | viscosity, [2] [mPa·s]
298.15 K | 1478.75 ± 0.38 | 1.4422 ± 0.0006 | 0.5916
303.15 K | 1469.16 ± 0.37 | 1.4397 ± 0.0006 | 0.558
308.15 K | 1460.01 ± 0.37 | 1.4356 ± 0.0006 | 0.5333
313.15 K | 1450.39 ± 0.36 | 1.4338 ± 0.0006 | 0.5072
318.15 K | 1440.03 ± 0.36 | 1.4297 ± 0.0006 | 0.4849
